Results reported in PubChem BioAssay (NCI).
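Assay format: 96-well plates, 48-hour exposure. Definition used: TGI = concentration required for complete inhibition of growth.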

Assays:
Experiment in all cases: growth of human tumour cells (NCI), 48 h
ACHN renal = system: ACHN renal
HOP-62 NSCLC = system: HOP-62 NSCLC
K-562 leukemia = system: K-562 leukemia
KM12 colon = system: KM12 colon
LOX IMVI melanoma = system: LOX IMVI melanoma
MDA-N = system: MDA-N
NCI-H23 lung = system: NCI-H23 lung
NCI-H460 lung = system: NCI-H460 lung
OVCAR-5 ovarian = system: OVCAR-5 ovarian
RPMI-8226 leukemia = system: RPMI-8226 leukemia
SR leukemia = system: SR leukemia
U251 CNS = system: U251 CNS
SK-OV-3 ovarian = system: SK-OV-3 ovarian

| Compound | TGI (ACHN renal) [µM] | TGI (HOP-62 NSCLC) [µM] | TGI (K-562 leukemia) [µM] | TGI (KM12 colon) [µM] | TGI (LOX IMVI melanoma) [µM] | TGI (MDA-N) [µM] | TGI (NCI-H23 lung) [µM] | TGI (NCI-H460 lung) [µM] | TGI (OVCAR-5 ovarian) [µM] | TGI (RPMI-8226 leukemia) [µM] | TGI (SR leukemia) [µM] | TGI (U251 CNS) [µM] | TGI (SK-OV-3 ovarian) [µM] |
| --- | --- | --- | --- | --- | --- | --- | --- | --- | --- | --- | --- | --- | --- |
| CC1(c2ccccc2)O[C@@H]2C[C@H]3[C@@H]4CCC5=CC(=O)C=C[C@]5(C)[C@@]4(F)[C@@H](O)C[C@]3(C)[C@]2(C(=O)CO)O1 (some centres not stated) | 34.8 | 29.2 | 34.4 | 30 | 47.1 | 35.3 | 36.3 | 29.8 | 33.1 | 17.2 | 76.9 | 33.3 |  |
| [N-]=[N+]=NC1C(O)C(CO)OC1n1ccc(N)nc1=O (configuration not stated) | > 625 | > 625 | > 625 | > 625 | > 625 | > 625 | > 625 | > 625 | > 625 | > 625 | 296 | > 625 | > 625 |
| CC(=O)OCC1(C)C(O)CCC2(C)C1CCC1CC3CC12CCC3(O)CO (configuration not stated) | > 100 | > 100 | > 100 | > 100 | > 100 | > 100 | > 100 | > 100 | > 100 | > 100 | > 29.4 | > 100 | > 100 |
| CSc1c(C#N)c(=O)n(N)c2c1c(C)nn2-c1ccccc1 |  |  | 87 | > 100 | 52.6 | > 100 | 52.7 | > 100 | > 100 | 63.9 | 71.8 | > 100 | 93.8 |
| C=C1N(S(=O)(=O)c2ccc(C)cc2)C(=O)OCC12CCCC2 | > 100 |  | > 100 | > 100 | > 100 | > 100 | > 100 | > 100 | > 100 | > 100 | > 100 | > 100 | > 100 |
| CC1=NN(c2ccc(S(=O)(=O)O)cc2)C2(C1)C(Cl)C(=O)N2c1nc2ccccc2s1 (configuration not stated) | > 100 | > 100 | > 100 | > 100 | > 100 | > 100 | > 100 | > 100 | > 100 | > 100 | > 100 | > 100 | > 100 |
| Cc1ccc2[nH]c3c(c(=O)n(C)c(=O)n3C)c2c1 | > 100 | > 100 | > 100 | > 100 | > 100 | > 100 | > 100 |  | > 100 | > 100 | > 100 | > 100 | > 100 |
| O=S1SC(=S)C2C=CC=NC21 (configuration not stated) | 32.4 |  | > 100 | > 100 | 32.7 | 27.8 | 43.1 | 37.8 | 28.6 | > 100 | 77.7 | 35.1 | > 100 |
| COc1ccc(N2C(=O)C(Cl)C2c2cc3cc(Br)ccc3nc2Cl)cc1 (configuration not stated) | 9.64 | 20.4 | > 25 | > 25 | 4.41 | 15.7 | 15.6 | 12.2 | > 25 | 21.6 | 6.82 |  | > 25 |
| Cn1c(=O)c2ccccc2[n+]2c(-c3cccc([N+](=O)[O-])c3)csc12 | > 100 | > 100 | > 100 | > 100 | > 100 | > 100 | > 100 | > 100 | > 100 | > 100 | 71.5 | > 100 | > 100 |
| COC(=O)[C@@H]1CN(C(=O)CCc2ccccc2)C(=O)N1 | > 100 | > 100 | > 100 | > 100 | > 100 | > 100 | > 100 | > 100 | > 100 | > 100 | > 100 | > 100 | > 100 |
| CCCC(=O)OCC1OC(n2cc(F)c(=O)[nH]c2=O)CC1O (configuration not stated) | > 10 | > 10 | > 10 | > 10 | > 8.79 | > 10 | 1.66 | > 10 | > 10 | > 10 | > 10 | > 10 | > 10 |
| Cn1nnc2c(C(N)=S)ncn2c1=O | > 100 | > 100 | > 100 | > 100 | > 100 | > 100 | > 100 | > 100 | > 100 | > 100 | > 100 | > 100 | > 100 |
| COC(=O)[C@@H]1C[C@@H](O)CN1C(=O)c1ccc([N+](=O)[O-])cc1[N+](=O)[O-] | > 100 | > 100 | > 100 | > 100 | > 100 | > 100 | > 100 | > 100 | > 100 | > 100 | > 100 | > 100 | > 100 |
| S=C1NC2=C(CSC/C2=C\c2ccc(Cl)cc2)C(c2ccc(Cl)cc2)N1 (configuration not stated) | > 100 | > 100 | > 100 | > 100 | > 100 | > 100 | > 100 | > 100 | > 100 | 94.5 | > 100 | > 100 | > 100 |
| CC(=O)Nc1cc(Cl)cc(Cl)c1O | > 100 | > 100 | > 100 | > 100 |  | > 100 | > 100 | > 100 | > 100 | > 100 | > 100 | > 100 | > 100 |
| CCCCC(=O)/C=c1/cc(C)[nH]c2cccc3cnn1c32 | > 100 | > 100 |  | > 100 | > 100 | > 100 | > 100 |  | > 100 | > 100 | > 100 | > 100 | > 100 |
| CC1(C)Cc2c(sc3[nH]c(=S)[nH]c(=S)c23)CS1 |  | > 100 | > 100 | > 100 | > 100 | > 100 | > 100 | > 100 |  | 68.5 | > 100 | > 100 | 99.7 |
| CCOC(=O)c1ncn(CCc2ccc(Cl)cc2)c1C | > 100 | > 100 | > 100 | > 100 | > 100 | > 100 | > 100 | > 100 | > 100 | > 100 | > 100 | > 100 |  |
| Cc1cc(C)c(NS(=O)c2cccc(C(F)(F)F)c2)c(C)c1 (configuration not stated) | > 100 | > 100 | > 100 | > 100 |  | > 100 | > 100 | > 100 | > 100 | > 100 | > 100 | > 100 |  |
| C[C@@H]1S[C@H](c2c(F)cccc2Cl)n2c1nc1ccccc12 | > 100 | 29.4 | > 100 | 20.5 | 25.3 | 21.5 | 28 |  | > 100 | 40.2 | 67.7 | 22.7 | 55.9 |
| CNc1cc([N+](=O)[O-])ccc1C(=O)N1CCC[C@H]1CO | > 100 | > 100 | > 100 | > 100 | > 100 | > 100 |  | > 100 | > 100 | > 100 | > 100 | > 100 | > 100 |
| O=c1[nH]c(=O)c2c([nH]1)[nH]c1ccc(Br)cc12 | > 100 | > 100 |  | 79.3 | > 100 | > 100 | > 100 |  | > 100 | > 100 | > 100 |  | 56.4 |
| COCn1cc(C2=C(C)C(=O)C(C)=C(C)C2=O)cn1 | > 100 | > 100 | 42.6 | > 100 |  | > 100 | > 100 | > 100 | > 100 | 60.2 | 65.9 |  |  |
| Clc1sc(Cl)c2c1[C@H](Cl)C[C@@H]2Cl | 95 | > 100 | > 100 | > 100 | 25.2 | 64.5 | 50 | > 100 | 81.2 |  | > 100 | 48.2 | > 100 |
| COC(=O)/C=C/CCC#Cc1ccccc1C#CCC/C=C/C(=O)OC | > 100 | > 100 | 4.86 | > 100 | 64 | > 100 | 42.9 | > 100 | > 100 |  | > 100 | > 100 | > 100 |
| COc1ccc(Cc2cc(Cc3ccc(OC)cc3)cc(Cc3ccc(OC)cc3)c2)cc1 | > 100 | > 100 | > 100 | > 100 | > 100 | > 100 |  | > 100 | > 100 | > 100 | > 100 | > 100 | > 100 |
| O=C(OCc1ccccc1)C(Cc1ccc(OCc2ccccc2)cn1)NC(=O)C(F)(F)F (configuration not stated) | > 100 | > 100 | > 100 | > 100 | > 100 | > 100 | > 100 | > 100 | > 100 | > 100 | > 100 | > 100 |  |
